Reference: US11453681B2, “Substituted eneoxindoles and uses thereof” (Gilead Sciences, Inc., priority 2019, dated 2022)

target: human HPK1 (MAP4K1) (Homo sapiens (Human), UniProt Q92918); assay: HPK1 IC50 Assay; type: biochemical; settings: recombinant HPK1 kinase domain 0.15 nM, synthetic peptide substrate STK S1, 3 hours at 25° C., time-resolved fluorescence energy transfer; geometric mean of multiple experiments
Experimental: The enzymatic activity of human HPK1 (MAP4K1) was monitored in a biochemical assay in the presence or absence of compounds and using a synthetic peptide substrate. An increase in phosphorylation of the peptide by HPK1 was indicative of its kinase activity.
Recombinant HPK1 kinase domain produced via baculovirus infection of insect cells was obtained from Proteros (Proteros Biostructures #PR-0322) and was pre-activated in the presence of 2 mM ATP (Sigma-Aldrich, cat #GE27-2056-01) and 2 mM magnesium chloride for 16 hours at 4° C. The protein reaction mixture was then loaded to a desalting column (Thermo Fisher Scientific, Cat #89889) to remove excess ATP. HPK1 was eluted with buffer containing 20 mM Tris (2-Amino-2-(hydroxymethyl)propane-1,3-diol) pH 8.0, 150 mM NaCl, 2 mM dithiothreitol and 5% glycerol, and was frozen at −80° C. for later use. HPK1 dual phosphorylation was confirmed by mass spectrometry.
Ten nanoliters of test compounds dissolved in DMSO at various concentrations were dispensed into a 384-well ProxiPlate (PerkinElmer #6008289). Five microliters of a solution of recombinant HPK1 diluted in HPK1 kinase assay buffer (50 mM BES [N,N-Bis(2-hydroxyethyl)-2-aminoethanesulfonic acid], pH 7.0; 10 mM magnesium chloride; 0.01% Triton X-100; 1 mM dithiothreitol; 0.01% bovine serum albumin; 0.1 mM sodium orthovanadate) was added to the compound-containing plate and was incubated for 15 minutes at 25° C. Five microliters of a mixture of ATP (Sigma-Aldrich #A6559) and peptide substrate STK Si (Cisbio #61ST1BLC) diluted in HPK1 kinase assay buffer was then added to start the reaction. Final concentrations were 0.15 nM for HPK1, […], and 1 […]. The reaction mixture was incubated at 25° C. for 3 hours and was stopped with the addition of 10 μl of an EDTA (Ethylenediaminetetraacetic acid)-containing detection buffer (Cisbio #62SDBRDF) supplemented with Europium cryptate-labeled anti-phospho-serine/threonine antibodies (Cisbio #62ST1PEJ) and XL665-labeled streptavidin (Cisbio #610SAXLG). The mixture was incubated for 16 hours at room temperature and peptide phosphorylation was measured by time-resolved fluorescence energy transfer (665 nm/620 nm) on an Envision plate reader (PerkinElmer).
Data in Table 1 were normalized based on positive (staurosporine) and negative (DMSO) controls. Least squares curve fittings were performed using a four-parameter variable slope nonlinear regression model. IC50 is defined as the concentration of compound required to inhibit 50% of maximum phosphorylation. IC50 values from multiple experiments were averaged by geometric mean and the standard deviation was calculated.

human HPK1 (MAP4K1), sequence (Q92918 17-274): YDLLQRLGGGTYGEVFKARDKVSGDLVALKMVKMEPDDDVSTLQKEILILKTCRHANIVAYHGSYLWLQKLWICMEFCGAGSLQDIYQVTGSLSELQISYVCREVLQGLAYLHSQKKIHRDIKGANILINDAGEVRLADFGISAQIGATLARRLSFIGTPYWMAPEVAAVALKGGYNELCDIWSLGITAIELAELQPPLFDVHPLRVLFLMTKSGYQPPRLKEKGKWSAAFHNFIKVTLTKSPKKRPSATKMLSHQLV

IC50	SMILES
0.05 nM	Cc1c(-c2cc(F)c3c(c2)/C(=C/c2ccc[nH]2)C(=O)N3)cnc2c1NCCO2 [Compound C26, (Z)-3-((1H-pyrrol-2-yl)methylene)-7-fluoro-5-(8-methyl-2,3-dihydro-1H-pyrido[2,3-b][1,4]oxazin-7-yl)indolin-2-one]
1.64 nM	Cc1c(-c2ccc3c(c2)/C(=C/c2cnn[nH]2)C(=O)N3)cnc2c1NCCO2 [Compound C27, (Z)-3-((1H-1,2,3-triazol-5-yl)methylene)-5-(8-methyl-2,3-dihydro-1H-pyrido[2,3-b][1,4]oxazin-7-yl)indolin-2-one]
0.05 nM	Cc1c[nH]c(/C=C2\C(=O)Nc3ccc(-c4cnc5c(c4C)NCCO5)cc32)c1 [Compound C28, (Z)-3-((4-methyl-H-pyrrol-2-yl)methylene)-5-(8-methyl-2,3-dihydro-1H-pyrido[2,3-b][1,4]oxazin-7-yl)indolin-2-one]
0.05 nM	Cc1c(-c2ccc3c(c2)/C(=C/c2ccc[nH]2)C(=O)N3)cnc2c1NCCO2 [Compound C29, (Z)-3-((1H-pyrrol-2-yl)methylene)-5-(8-methyl-2,3-dihydro-1H-pyrido[2,3-b][1,4]oxazin-7-yl)indolin-2-one]
0.97 nM	Cc1c(-c2ccc3c(c2)/C(=C/c2ccn[nH]2)C(=O)N3)cnc2c1NCCO2 [Compound C30, (Z)-3-((1H-pyrazol-5-yl)methylene)-5-(8-methyl-2,3-dihydro-1H-pyrido[2,3-b][1,4]oxazin-7-yl)indolin-2-one]
0.77 nM	Cc1c(-c2ccc3c(c2)/C(=C/c2ncc[nH]2)C(=O)N3)cnc2c1NCCO2 [Compound C31, (Z)-3-((1H-imidazol-2-yl)methylene)-5-(8-methyl-2,3-dihydro-1H-pyrido[2,3-b][1,4]oxazin-7-yl)indolin-2-one]
0.26 nM	Cc1c(-c2ccc3c(c2)/C(=C/c2cnc[nH]2)C(=O)N3)cnc2c1NCCO2 [Compound C32, (Z)-3-((1H-imidazol-5-yl)methylene)-5-(8-methyl-2,3-dihydro-1H-pyrido[2,3-b][1,4]oxazin-7-yl)indolin-2-one]
5.66 nM	Cc1c(-c2ccc3c(c2)/C(=C/c2ncc[nH]2)C(=O)N3)cnc2c1NC(=O)C1(CC1)O2 [Compound C33, (Z)-7′-(3-((1H-imidazol-2-yl)methylene)-2-oxoindolin-5-yl)-8′-methylspiro[cyclopropane-1,3′-pyrido[2,3-b][1,4]oxazin]-2′(1′H)-one]
0.13 nM	Cc1c(-c2ccc3c(c2)/C(=C/c2cnc(C4CC4)[nH]2)C(=O)N3)cnc2c1NCCO2 [Compound C34, (Z)-3-((2-cyclopropyl-1H-imidazol-5-yl)methylene)-5-(8-methyl-2,3-dihydro-1H-pyrido[2,3-b][1,4]oxazin-7-yl)indolin-2-one]
0.05 nM	Cc1c(-c2cc(F)c3c(c2)/C(=C/c2cnc(C4CC4)[nH]2)C(=O)N3)cnc2c1NCCO2 [Compound C35, (Z)-3-((2-cyclopropyl-1H-imidazol-5-yl)methylene)-7-fluoro-5-(8-methyl-2,3-dihydro-1H-pyrido[2,3-b][1,4]oxazin-7-yl)indolin-2-one]
1 nM	CC/C(=C1/C(=O)Nc2ccc(-c3cnc4c(c3C)NCCO4)cc21)c1cnc[nH]1 [Compound C36, (Z)-3-(1-(1H-imidazol-5-yl)propylidene)-5-(8-methyl-2,3-dihydro-H-pyrido[2,3-b][1,4]oxazin-7-yl)indolin-2-one]
0.69 nM	Cc1cc2c(cc1-c1cnc3c(c1C)NCCO3)/C(=C/c1cc3ccncc3[nH]1)C(=O)N2 [Compound C37, (Z)-3-((1H-pyrrolo[2,3-c]pyridin-2-yl)methylene)-6-methyl-5-(8-methyl-2,3-dihydro-1H-pyrido[2,3-b][1,4]oxazin-7-yl)indolin-2-one]
0.11 nM	Cc1cc2c(cc1-c1cnc3c(c1C)NCCO3)/C(=C/c1cc3ncccc3[nH]1)C(=O)N2 [Compound C38, (Z)-3-((1H-pyrrolo[3,2-b]pyridin-2-yl)methylene)-6-methyl-5-(8-methyl-2,3-dihydro-1H-pyrido[2,3-b][1,4]oxazin-7-yl)indolin-2-one]
